Entries after “also recorded” stand apart in the source; their conditions may differ.
Legend:
recombinant MlrA = experiment: CEs (cell-free extracts) of recombinant mlrA-HMBP-pET28a/BL21 in sterile water; conditions: mlrA-HMBP-pET28a/BL21, 37 °C, up to 48 h
[1] = Sphingomonas sp. B-9 cells; conditions: cited from earlier work
[2] = natural microbial communities in sediments; conditions: cited from earlier work
[3] = Strain m6 cells in MSM, pH 7, at 40 °C; conditions: Sphingopyxis sp. m6, 40 °C, up to six days
[4] = CEs from HMBP-pET28a/BL21 (negative control) in sterile water; conditions: HMBP-pET28a/BL21, 37 °C, up to 12 h
[5] = suspension of HMBP-pET28a/BL21 (negative control) in sterile water; conditions: HMBP-pET28a/BL21, 37 °C, up to 144 h
MlrA = experiment: suspension of intact recombinant mlrA-HMBP-pET28a/BL21 in sterile water; conditions: mlrA-HMBP-pET28a/BL21, 37 °C, up to 144 h
[6] = Strain m6 cells resuspended in sterile MSM (mineral salt medium); conditions: Sphingopyxis sp. m6, 30 °C, up to six days

In the case of D-MeAsp, L-Arg, Adda, D-Glu, and Mdhb, the cleaved bond (recombinant MlrA) is listed as “Arg-Adda, first_seen”, the fragment found [1] is listed as “linear NOD and Adda” and the fragment found [2] is listed as “linear NOD and Adda and H-Glu-Mdhb-MeAsp-Arg-OH and H-Adda-Glu-Mdhb-MeAsp-OH and H-Adda-Glu-Mdhb-MeAsp-Cit-OH”. For the same substance, the not cleaved [3] was “the toxin concentration barely decreased”, the not cleaved [4] was “remaining essentially unchanged” and the not cleaved [5] was “remaining essentially unchanged”. For the same substance, the cleaved bond (MlrA) was “Arg-Adda, first_seen” and the cleaved bond [6] was “Arg-Adda, first_seen; also recorded: Adda-Glu; also recorded: Glu-Mdhb; also recorded: Mdhb-MeAsp”.

Source: PMC8618024 (2021)
